Measured values from ChEMBL document CHEMBL4842380, “Enhanced Properties of a Benzimidazole Benzylpyrazole Lysine Demethylase Inhibitor: Mechanism-of-Action, Binding Site Analysis, and Activity in Cellular Models of Prostate Cancer” (J Med Chem, 2021).
Calls of active or inactive are those of the source. The rule behind the calls is not given here.

Columns and labels:
[1] = biological target: T1, Lysine-specific demethylase 4E (Homo sapiens, UniProt B2RXH2); assay: Inhibition of N-terminal His6-tagged KDM4E (1 to 337 residues) (unknown origin) expressed in Escherichia coli BL21 (DE3)-R3 preincubated for 10 mins followed by substrate addition by fluorescence based FDH-coupled assay
T1 sequence (B2RXH2 whole entry): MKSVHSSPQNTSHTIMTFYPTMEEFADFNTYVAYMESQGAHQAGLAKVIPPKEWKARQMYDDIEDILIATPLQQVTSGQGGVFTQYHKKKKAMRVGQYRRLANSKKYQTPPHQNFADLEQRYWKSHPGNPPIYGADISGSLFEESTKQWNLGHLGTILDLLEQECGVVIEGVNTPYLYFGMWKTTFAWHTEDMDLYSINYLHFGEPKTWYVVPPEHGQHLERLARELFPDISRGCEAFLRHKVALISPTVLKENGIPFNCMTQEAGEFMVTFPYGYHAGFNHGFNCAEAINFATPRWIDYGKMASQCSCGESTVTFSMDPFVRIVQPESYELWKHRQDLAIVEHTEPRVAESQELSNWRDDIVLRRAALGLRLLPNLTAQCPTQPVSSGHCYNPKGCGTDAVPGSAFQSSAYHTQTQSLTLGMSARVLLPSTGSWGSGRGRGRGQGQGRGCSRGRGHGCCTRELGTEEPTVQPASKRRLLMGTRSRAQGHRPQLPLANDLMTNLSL

[2] = biological target: T1, Lysine-specific demethylase 4E; assay: Inhibition of N-terminal His6-tagged KDM4E (1 to 337 residues) (unknown origin) expressed in Escherichia coli BL21 (DE3)-R3 preincubated for 10 mins followed by alpha-KG addition after CTH addition for 2 hrs by ELISA
[3] = tested on: PC-3; assay: Cytotoxicity against human PC-3 cells assessed as remaining cell viability after 48 hrs by alamar blue assay; type: functional
[4] = tested on: DU-145; assay: Cytotoxicity against human DU-145 cells assessed as remaining cell viability after 48 hrs by alamar blue assay; type: functional
[5] = tested on: DU-145; assay: Cytotoxicity against human DU-145 cells assessed as growth inhibition after 48 hrs by alamar blue assay; type: functional
[6] = Cytotoxicity against human LnCaP cells assessed as remaining cell viability after 48 hrs by alamar blue assay; type: functional, Prostate cell
[7] = Cytotoxicity against human prostate epithelial cells assessed as growth inhibition after 48 hrs by alamar blue assay; type: cell-based, Prostate cell
[8] = Cytotoxicity against human prostate epithelial cells assessed as remaining cell viability after 48 hrs by alamar blue assay; type: functional
[9] = tested on: LNCaP; assay: Cytotoxicity against human LnCaP cells assessed as growth inhibition after 48 hrs by alamar blue assay; type: functional
[10] = tested on: PC-3; assay: Cytotoxicity against human PC-3 cells assessed as growth inhibition after 48 hrs by alamar blue assay; type: functional
[11] = biological target: T2, Lysine-specific demethylase 4E (Homo sapiens) (UniProt B2RXH2); assay: Inhibition of N-terminal His6-tagged KDM4E (1 to 337 residues) (unknown origin) expressed in Escherichia coli BL21 (DE3)-R3 at highest concentration preincubated for 10 mins followed by substrate addition by fluorescence based FDH-coupled assay
T2 sequence (whole entry): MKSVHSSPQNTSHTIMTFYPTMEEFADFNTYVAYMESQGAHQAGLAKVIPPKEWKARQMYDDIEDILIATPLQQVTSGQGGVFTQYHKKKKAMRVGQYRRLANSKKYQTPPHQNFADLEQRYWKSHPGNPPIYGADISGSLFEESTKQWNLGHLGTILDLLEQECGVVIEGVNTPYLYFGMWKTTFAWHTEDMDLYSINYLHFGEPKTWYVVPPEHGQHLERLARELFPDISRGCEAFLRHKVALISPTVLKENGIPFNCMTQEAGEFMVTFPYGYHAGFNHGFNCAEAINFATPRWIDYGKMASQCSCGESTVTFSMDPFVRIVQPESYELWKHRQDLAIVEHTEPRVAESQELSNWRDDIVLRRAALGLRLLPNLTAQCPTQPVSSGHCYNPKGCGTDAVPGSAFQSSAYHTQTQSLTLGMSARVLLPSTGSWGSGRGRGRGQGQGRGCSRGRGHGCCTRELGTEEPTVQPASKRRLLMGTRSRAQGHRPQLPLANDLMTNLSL

[12] = tested on: LNCaP; assay: Inhibition of KDM4 in human LNCaP cells assessed as increase in H3K9me3 abundance at 25 uM incubated for 48 hrs by Western blot analysis; type: cell-based
[13] = tested on: DU-145; assay: Inhibition of KDM4 in human DU-145 cells assessed as increase in H3K9me3 level at 25 uM incubated for 48 hrs by Nu-ELISA; type: cell-based
[14] = tested on: LNCaP; assay: Inhibition of KDM4 in human LNCaP cells assessed as decrease in luciferase activity at 25 uM incubated for 48 hrs by luciferase based reporter gene assay; type: cell-based
[15] = tested on: LNCaP; assay: Inhibition of KDM4 in human LNCaP cells assessed as increase in H3K9me3 level at 25 uM incubated for 48 hrs by Nu-ELISA; type: cell-based
[16] = tested on: LNCaP; assay: Inhibition of KDM4 in human LNCaP cells assessed as decrease in PSA gene expression at 25 uM incubated for 48 hrs in presence of DHT by qPCR analysis; type: cell-based
[17] = tested on: LNCaP; assay: Inhibition of KDM4 in human LNCaP cells assessed as decrease in PSA gene expression at 25 uM incubated for 48 hrs by qPCR analysis; type: cell-based
[18] = compound: Cc1nn(-c2nc3ccccc3[nH]2)c(O)c1-c1ccccc1; assay: Inhibition of N-terminal His6-tagged KDM4E (1 to 337 residues) (unknown origin) expressed in Escherichia coli BL21 (DE3)-R3 assessed as Vmax at 5 uM in presence of H3K9me3 by Michaelis-Menten analysis (reference value: 21 /s); details: Homo sapiens
[19] = compound: Cc1nn(-c2nc3ccccc3[nH]2)c(O)c1-c1ccccc1; assay: Inhibition of N-terminal His6-tagged KDM4E (1 to 337 residues) (unknown origin) expressed in Escherichia coli BL21 (DE3)-R3 assessed as Km at 5 uM in presence of alpha-KG by Michaelis-Menten analysis (reference value: 12 uM); details: Homo sapiens
[20] = compound: Cc1nn(-c2nc3ccccc3[nH]2)c(O)c1-c1ccccc1; assay: Inhibition of N-terminal His6-tagged KDM4E (1 to 337 residues) (unknown origin) expressed in Escherichia coli BL21 (DE3)-R3 assessed as Km at 1 uM in presence of H3K9me3 by Michaelis-Menten analysis (reference value: 11 uM); details: Homo sapiens
[21] = compound: Cc1nn(-c2nc3ccccc3[nH]2)c(O)c1-c1ccccc1; assay: Inhibition of N-terminal His6-tagged KDM4E (1 to 337 residues) (unknown origin) expressed in Escherichia coli BL21 (DE3)-R3 assessed as Vmax at 10 uM in presence of alpha-KG by Michaelis-Menten analysis (reference value: 35 /s); details: Homo sapiens
[22] = compound: Cc1nn(-c2nc3ccccc3[nH]2)c(O)c1-c1ccccc1; assay: Inhibition of N-terminal His6-tagged KDM4E (1 to 337 residues) (unknown origin) expressed in Escherichia coli BL21 (DE3)-R3 assessed as Km at 5 uM in presence of H3K9me3 by Michaelis-Menten analysis (reference value: 11 uM); details: Homo sapiens
[23] = compound: O=C(O)c1ccnc(C(=O)O)c1; assay: Inhibition of N-terminal His6-tagged KDM4E (1 to 337 residues) (unknown origin) expressed in Escherichia coli BL21 (DE3)-R3 assessed as Vmax at 1 uM in presence of alpha-KG by Michaelis-Menten analysis (reference value: 42 /s); details: Homo sapiens
[24] = compound: Cc1nn(-c2nc3ccccc3[nH]2)c(O)c1-c1ccccc1; assay: Inhibition of N-terminal His6-tagged KDM4E (1 to 337 residues) (unknown origin) expressed in Escherichia coli BL21 (DE3)-R3 assessed as Vmax at 10 uM in presence of H3K9me3 by Michaelis-Menten analysis (reference value: 21 /s); details: Homo sapiens
[25] = compound: Cc1nn(-c2nc3ccccc3[nH]2)c(O)c1-c1ccccc1; assay: Inhibition of N-terminal His6-tagged KDM4E (1 to 337 residues) (unknown origin) expressed in Escherichia coli BL21 (DE3)-R3 assessed as Vmax at 1 uM in presence of alpha-KG by Michaelis-Menten analysis (reference value: 35 /s); details: Homo sapiens
[26] = compound: Cc1nn(-c2nc3ccccc3[nH]2)c(O)c1-c1ccccc1; assay: Inhibition of N-terminal His6-tagged KDM4E (1 to 337 residues) (unknown origin) expressed in Escherichia coli BL21 (DE3)-R3 assessed as Km at 10 uM in presence of H3K9me3 by Michaelis-Menten analysis (reference value: 11 uM); details: Homo sapiens
[27] = compound: Cc1nn(-c2nc3ccccc3[nH]2)c(O)c1-c1ccccc1; assay: Inhibition of N-terminal His6-tagged KDM4E (1 to 337 residues) (unknown origin) expressed in Escherichia coli BL21 (DE3)-R3 assessed as Vmax at 5 uM in presence of alpha-KG by Michaelis-Menten analysis (reference value: 35 /s); details: Homo sapiens
[28] = compound: O=C(O)c1ccnc(C(=O)O)c1; assay: Inhibition of N-terminal His6-tagged KDM4E (1 to 337 residues) (unknown origin) expressed in Escherichia coli BL21 (DE3)-R3 assessed as Km at 1 uM in presence of alpha-KG by Michaelis-Menten analysis (reference value: 22 uM); details: Homo sapiens
[29] = compound: Cc1nn(-c2nc3ccccc3[nH]2)c(O)c1-c1ccccc1; assay: Inhibition of N-terminal His6-tagged KDM4E (1 to 337 residues) (unknown origin) expressed in Escherichia coli BL21 (DE3)-R3 assessed as Km at 1 uM in presence of alpha-KG by Michaelis-Menten analysis (reference value: 12 uM); details: Homo sapiens
[30] = compound: Cc1nn(-c2nc3ccccc3[nH]2)c(O)c1-c1ccccc1; assay: Inhibition of N-terminal His6-tagged KDM4E (1 to 337 residues) (unknown origin) expressed in Escherichia coli BL21 (DE3)-R3 assessed as Vmax at 1 uM in presence of H3K9me3 by Michaelis-Menten analysis (reference value: 21 /s); details: Homo sapiens
[31] = compound: Cc1nn(-c2nc3ccccc3[nH]2)c(O)c1-c1ccccc1; assay: Inhibition of N-terminal His6-tagged KDM4E (1 to 337 residues) (unknown origin) expressed in Escherichia coli BL21 (DE3)-R3 assessed as Km at 10 uM in presence of alpha-KG by Michaelis-Menten analysis (reference value: 12 uM); details: Homo sapiens

Cc1cc(N)n(-c2nc3ccccc3[nH]2)n1
IC50 [1]: 199 µM

CCc1nn(-c2nc3ccccc3[nH]2)c(O)c1-c1ccccc1
IC50 [1]: 5 µM

COC(=O)CCc1nn(-c2nc3ccccc3[nH]2)c(O)c1C
IC50 [1]: 106 µM

Cc1c(CCC(=O)O)nn(-c2nc3ccccc3[nH]2)c1O
IC50 [1]: 437 µM

COC(=O)Cc1cc(O)n(-c2nc3ccccc3[nH]2)n1
IC50 [2]: 581 µM | Activity [3]: 79% | Activity [4]: 69% | GI50 [5]: > 1000 µM | Activity [6]: 15% | GI50 at 48 h [7]: > 500 µM | IC50 [1]: 15 µM | Activity [8]: 12% | GI50 [9]: 410 µM | GI50 [10]: > 1000 µM

CNC(=O)CCc1c(C)nn(-c2nc3ccccc3[nH]2)c1O
IC50 [1]: 41 µM

Cc1ccc(-c2c(C)nn(-c3nc4ccccc4[nH]3)c2O)cc1
IC50 [1]: 27 µM

Cc1nn(-c2nc3ccc(C(=O)O)cc3[nH]2)c(O)c1-c1ccccc1
IC50 [1]: 19 µM

O=C(O)Cc1cc(O)n(-c2nc3ccccc3[nH]2)n1
IC50 [1]: 347 µM

Cc1nn(-c2ccc(Cl)nn2)c(O)c1-c1ccccc1
IC50 [1]: 68 µM

Cc1nn(-c2nc3ccccc3[nH]2)c(O)c1CCCN(C)C
IC50 [1]: 70 µM

Cc1nn(-c2nc3ccccc3s2)c(O)c1-c1ccccc1
IC50 [1]: 35 µM

Cc1cc(C)n(-c2nc3ccccc3[nH]2)n1
inhibition [11]: inactive

CCCc1c(C)nn(-c2nc3ccccc3[nH]2)c1O
IC50 [1]: 24 µM

Cc1nn(-c2nc3ccccc3[nH]2)c(O)c1-c1ccccc1
inhibition [12]: Active | Activity [3]: 27% | Activity [4]: 0% | inhibition [13]: Active | inhibition [14]: Active | GI50 [5]: 8 µM | inhibition [15]: Active | Activity [6]: 1% | inhibition [16]: Active | Activity [8]: 2% | GI50 [9]: 8 µM | inhibition [17]: Active | GI50 [10]: > 50 µM

B1: Lysine-specific demethylase 4E (Homo sapiens), B2RXH2 (protein)
chain: MKSVHSSPQNTSHTIMTFYPTMEEFADFNTYVAYMESQGAHQAGLAKVIPPKEWKARQMYDDIEDILIATPLQQVTSGQGGVFTQYHKKKKAMRVGQYRRLANSKKYQTPPHQNFADLEQRYWKSHPGNPPIYGADISGSLFEESTKQWNLGHLGTILDLLEQECGVVIEGVNTPYLYFGMWKTTFAWHTEDMDLYSINYLHFGEPKTWYVVPPEHGQHLERLARELFPDISRGCEAFLRHKVALISPTVLKENGIPFNCMTQEAGEFMVTFPYGYHAGFNHGFNCAEAINFATPRWIDYGKMASQCSCGESTVTFSMDPFVRIVQPESYELWKHRQDLAIVEHTEPRVAESQELSNWRDDIVLRRAALGLRLLPNLTAQCPTQPVSSGHCYNPKGCGTDAVPGSAFQSSAYHTQTQSLTLGMSARVLLPSTGSWGSGRGRGRGQGQGRGCSRGRGHGCCTRELGTEEPTVQPASKRRLLMGTRSRAQGHRPQLPLANDLMTNLSL
Vmax [18]: 14 s⁻¹ | Km [19]: 8 µM | Km [20]: 14 µM | Vmax [21]: 12 s⁻¹ | Km [22]: 14 µM | Vmax [23]: 37 s⁻¹ | Vmax [24]: 5 s⁻¹ | Vmax [25]: 31 s⁻¹ | Km [26]: 19 µM | Vmax [27]: 24 s⁻¹ | Km [28]: 69 µM | Km [29]: 13 µM | Vmax [30]: 21 s⁻¹ | Km [31]: 2 µM
